# Where two headings read alike, the source gives them in different places.
# Assays:
# [1] = rats, cited from earlier work
# [2] = Multiple-dose pharmacokinetics in cancer patients; assay type: in vivo, human
# Experimental: In single-dose studies, anlotinib were administered orally at dose of 5, 10, 12, or 16 mg anlotinib/person. Serial blood samples were collected in heparinized tubes before and at 0.5, 1, 2, 4, 8, 11, 24, 48, 72, 96, 120, 144, 168, 192, 216, and 240 h (samples of 144–240 h were collected only in 12 or 16 mg/person dose group) after dosing. In the 10 mg/person dose group, urine was sampled before and 0–2, 2–6, 6–11, 11–24, 24–34, 34–48, 48–58, 58–72, 72–96, and 96–120 h after dosing. In multiple-dose studies, there were two ways of multiple-dose administration. Initially, patients in 5 and 10 mg/person/day groups were treated consecutively for 28 days. […] Concentrations of anlotinib were measured by liquid chromatography/mass spectrometry.
# The maximum concentration (C max) and the time taken to achieve C max (T max) were obtained directly from the data with no interpolation. The area under concentration-time curve up to the last measured time point (AUC0 − t) was calculated by the trapezoidal rule. The elimination half-life (t 1/2) was calculated using the relationship 0.693/k. […] The renal clearance (CLR) was calculated by dividing the cumulative amount excreted into urine (Cum.A e − U) by plasma AUC0 − t. Accumulation ratio (R ac) was used to indicate the extent of accumulation during multiple doses of anlotinib capsules and calculated using the following equation: Rac=C24hDay15/C24hDay1, […]
# [3] = tested on: patients with advanced refractory solid tumors; test: Phase I safety and tolerability (DLT, MTD, adverse events NCI-CTCAE 4.0); assay type: in vivo; conditions: for dose-limiting toxicity: in vivo
# Text: Those patients received escalating doses of anlotinib daily for (1) four consecutive weeks (4/0) or (2) 2-week on/1-week off (2/1). […] If two DLTs were observed during the first cycle in a cohort, dose-escalation was halted and dose continued at a lower level until the MTD (the highest dose level for which the incidence of first-cycle DLT was <33 %) was identified. In the absence of two or more DLTs in a cohort, the dose was escalated in a modified Fibonacci scheme. Treatment cycles were repeated until disease progression, unacceptable toxicity, or withdrawal of consent.
# Adverse events are graded into 0–5 according to the National Cancer Institute Common Terminology Criteria for Adverse Events (NCI-CTCAE 4.0). During treatment, blood pressure will be monitored every day. Patients with unresolved adverse reactions at the end of the test needed to be treated and followed until the reactions returned to the grade 1 degree or less, or stable.
# VEGFR3 = tested on: VEGFR3; parameters: method as in details pending publication elsewhere; conditions: recombinant enzymes; ref details pending publication elsewhere; cited from earlier work
# [4] = Single-dose pharmacokinetics in cancer patients; assay type: in vivo, human; conditions: for AUC(0-t): read-out: AUC0–120h
# Experimental: In single-dose studies, anlotinib were administered orally at dose of 5, 10, 12, or 16 mg anlotinib/person. Serial blood samples were collected in heparinized tubes before and at 0.5, 1, 2, 4, 8, 11, 24, 48, 72, 96, 120, 144, 168, 192, 216, and 240 h (samples of 144–240 h were collected only in 12 or 16 mg/person dose group) after dosing. In the 10 mg/person dose group, urine was sampled before and 0–2, 2–6, 6–11, 11–24, 24–34, 34–48, 48–58, 58–72, 72–96, and 96–120 h after dosing. In multiple-dose studies, there were two ways of multiple-dose administration. Initially, patients in 5 and 10 mg/person/day groups were treated consecutively for 28 days. Blood samples were collected 24 h after dosing on days 1, 2, 4, 7, 10, 13, 15, 16, 18, 21, 24, 28, and 29. Later, the other volunteers were given multiple doses of anlotinib at 10, 12, or 16 mg anlotinib/person/day in the 2/1 schedule for two cycles. Blood samples were collected 24 h after dosing on days 1, 4, 7, 10, 13, 15, 18, 22, 29, and 36. The collected blood samples were centrifuged to prepare plasma fractions; the urine samples were weighed after collection. All samples were stored at −70 °C for subsequent analysis. Concentrations of anlotinib were measured by liquid chromatography/mass spectrometry.
# The maximum concentration (C max) and the time taken to achieve C max (T max) were obtained directly from the data with no interpolation. The area under concentration-time curve up to the last measured time point (AUC0 − t) was calculated by the trapezoidal rule. The elimination half-life (t 1/2) was calculated using the relationship 0.693/k. The k was estimated by linear regression analysis of the terminal portion of the log concentration-time data. The renal clearance (CLR) was calculated by dividing the cumulative amount excreted into urine (Cum.A e − U) by plasma AUC0 − t. Accumulation ratio (R ac) was used to indicate the extent of accumulation during multiple doses of anlotinib capsules and calculated using the following equation: Rac=C24hDay15/C24hDay1,
# where C 24 h(Day1) and C 24 h(Day15) are plasma concentrations of anlotinib at 24 h after dosing on day 1 and day 15, respectively. Plasma pharmacokinetic (PK) parameters were determined using noncompartmental method with a Kinetica software package (version 5.0; Thermo Scientific, Philadelphia, PA).
# [5] = tested on: human cytochrome P450 3A4; conditions: in vitro; read-out: half maximum inhibitory concentration; cited from earlier work
# VEGFR2/KDR = tested on: VEGFR2/KDR; parameters: method as in details pending publication elsewhere; conditions: recombinant enzymes; ref details pending publication elsewhere; cited from earlier work
# FGFR1-4 = conditions: especially FGFR2; to a greater extent than sorafenib; preclinical results; cited from earlier work
# [6] = tested on: human cytochrome P450 2C9; conditions: in vitro; read-out: half maximum inhibitory concentration; cited from earlier work
# [7] = tested on: tumor cells carrying mutations in PDGFR α, c-Kit, Met, and EGFR; conditions: preclinical background; cited from earlier work
# [8] = tumor-bearing mice; cited from earlier work
# [9] = dogs; cited from earlier work
# [10] = tested on: advanced refractory solid tumors; test: Tumor response by RECIST 1.1; assay type: in vivo, human
# Experimental: Efficacies were evaluated according to NCI-proposed Response Evaluation Criteria In Solid Tumors (RECIST 1.1). The tumor will be assessed every two cycles including tumor-related symptoms and physical and imaging examination (CT or MRI) of superficial lesions. Physical and imaging examination of tumor lesions should be done at least four weeks after the first effect evaluation in patients with complete remission (CR), partial remission (PR), and stable disease (SD) to confirm efficacy.
# [11] = tested on: human tumor xenograft models (SW-620, SK-OV-3, SMMC-7721, Caki-1, U87MG, Calu-3); conditions: colon, ovarian, liver, renal, glioma, non-small cell lung; during dosing period; cited from earlier work
# [12] = human, plasma, single oral dose 5 mg/person (n = 1)
# [13] = human, plasma, single oral dose 10 mg/person (n = 4)
# [14] = human, plasma, single oral dose 12 mg/person (n = 11)
# [15] = human, plasma, single oral dose 16 mg/person (n = 4)
# [16] = human, plasma, single oral dose 5-16 mg/person, range
# [17] = 12 mg/day 2/1 schedule, 20 assessable patients
smiles,measurement,setting,value
COc1cc2c(Oc3ccc4[nH]c(C)cc4c3F)ccnc2cc1OCC1(N)CC1 [anlotinib],oral bioavailability,[1]; oral,23–45%
same,"exposure level in lung, kidneys, liver, heart compared with plasma",[1],significant higher
same,exposure level in the brain compared with plasma level,[1],comparable
same,day at which maximum plasma concentration was reached,"[2]; 2/1 schedule, 2-week dosing",14 days
same,accumulation ratio R ac (C24h Day15/C24h Day1),"[2]; multiple oral doses, mean",12 ± 7
same,dose-limiting toxicity,[3]; human,grade 3 hypertension and grade 3 fatigue
same,dose-limiting toxicity,"[3]; human, 4 weeks",grade 3 hypertension
same,dose-limiting toxicity,[3],no DLT
same,maximum tolerated dose,"[3]; once daily, 2/1 schedule",12 mg
same,potency relative to sorafenib,VEGFR3,~500 times
same,potency relative to sunitinib,VEGFR3,approximately 20 times
same,half-life,"[4]; human, plasma, oral, mean over doses, dose-independent",96 ± 17 h
same,AUC(0-inf),[4]; [12],687 ng·h/mL
same,Cmax,[4]; [12],5.8 ng/mL
same,Tmax,[4]; [12],11 h
same,half-life,[4]; [12],102 h
same,AUC(0-t),[4]; [12],411 ng·h/mL
same,AUC(0-inf),[4]; [13],562 ± 328 ng·h/mL
same,Cmax,[4]; [13],5.8 ± 2.8 ng/mL
same,Tmax,[4]; [13],6 ± 4.4 h
same,half-life,[4]; [13],95 ± 22 h
same,AUC(0-t),[4]; [13],318 ± 133 ng·h/mL
same,AUC(0-inf),[4]; [14],1070 ± 263 ng·h/mL
same,Cmax,[4]; [14],10.5 ± 2.9 ng/mL
same,Tmax,[4]; [14],7.3 ± 3.3 h
same,half-life,[4]; [14],116 ± 47 h
same,AUC(0-t),[4]; [14],617 ± 194 ng·h/mL
same,AUC(0-inf),[4]; [15],1580 ± 470 ng·h/mL
same,Cmax,[4]; [15],15.8 ± 3.2 ng/mL
same,Tmax,[4]; [15],11 ± 8.9 h
same,half-life,[4]; [15],98 ± 15 h
same,AUC(0-t),[4]; [15],894 ± 305 ng·h/mL
same,MRT,[4]; [16],124 to 167 h
same,Tmax,[4]; [16],4 to 11 h
same,half-life,[4]; [16],64 to 136 h
same,CL renal,"[4]; human, urine and plasma, single oral dose, urine sampled in 10 mg/person group, read-out: renal clearance CLR (converted)",4 mL/h/kg
same,"dose proportionality of AUC0–120h, Conclusion",[4]; single oral dose,Inconclusive
same,"dose proportionality of AUC0–∞, Conclusion",[4]; single oral dose,Inconclusive
same,"dose proportionality of C max, Conclusion",[4]; single oral dose,Inconclusive
same,fraction of the dose excreted into urine (f e − U),"[4]; single oral dose, urine sampled in 10 mg/person group",~ 0.9%
same,IC50,[5],110 nM
same,potency relative to sorafenib,VEGFR2/KDR,~500 times
same,potency relative to sunitinib,VEGFR2/KDR,approximately 20 times
same,inactivation of FGFR1-4,FGFR1-4,significantly inactivated
same,IC50,[6],250 nM
same,antitumor activity against tumor cells carrying mutations,[7],showed antitumor activity
same,concentration in tumor tissue relative to plasma,[8],2.4–2.6 times
same,oral bioavailability,[9],47–74%
same,patients with tumor burden shrinkage,[10]; 12 mg once daily,More than 60%
same,partial response (PR),[10]; [17],15%
same,"partial response (PR), patients",[10]; [17],3
same,patients with tumor burden shrinkage among SD,[10]; [17],12
same,progressive disease (PD),[10]; [17],15%
same,"progressive disease (PD), patients",[10]; [17],3
same,"stable disease (SD), patients",[10]; [17],14
same,activity against human tumor xenograft models,[11],broad activity

# — paper PMC5051080, “Safety, pharmacokinetics, and antitumor properties of anlotinib, an oral multi-target tyrosine kinase inhibitor, in patients with advanced refractory solid tumors” (Journal of Hematology & Oncology, 2016)
